In ChEMBL document CHEMBL1140272, “Discovery of potent and use-dependent sodium channel blockers for treatment of chronic pain” (Bioorg Med Chem Lett, 2005):
pIC50, pKi: −log10 of the molar value.

How the values were obtained:
[1] = biological target: T1, Sodium channel protein type 9 subunit alpha (Homo sapiens, UniProt Q15858); experiment: In vitro inhibitory concentration against Na v1.7 channel expressed in HEK293 cells using Voltage/Ion Probe Reader (VIPR) assay; assay type: cell-based
Target sequence in this assay (Q15858 whole entry): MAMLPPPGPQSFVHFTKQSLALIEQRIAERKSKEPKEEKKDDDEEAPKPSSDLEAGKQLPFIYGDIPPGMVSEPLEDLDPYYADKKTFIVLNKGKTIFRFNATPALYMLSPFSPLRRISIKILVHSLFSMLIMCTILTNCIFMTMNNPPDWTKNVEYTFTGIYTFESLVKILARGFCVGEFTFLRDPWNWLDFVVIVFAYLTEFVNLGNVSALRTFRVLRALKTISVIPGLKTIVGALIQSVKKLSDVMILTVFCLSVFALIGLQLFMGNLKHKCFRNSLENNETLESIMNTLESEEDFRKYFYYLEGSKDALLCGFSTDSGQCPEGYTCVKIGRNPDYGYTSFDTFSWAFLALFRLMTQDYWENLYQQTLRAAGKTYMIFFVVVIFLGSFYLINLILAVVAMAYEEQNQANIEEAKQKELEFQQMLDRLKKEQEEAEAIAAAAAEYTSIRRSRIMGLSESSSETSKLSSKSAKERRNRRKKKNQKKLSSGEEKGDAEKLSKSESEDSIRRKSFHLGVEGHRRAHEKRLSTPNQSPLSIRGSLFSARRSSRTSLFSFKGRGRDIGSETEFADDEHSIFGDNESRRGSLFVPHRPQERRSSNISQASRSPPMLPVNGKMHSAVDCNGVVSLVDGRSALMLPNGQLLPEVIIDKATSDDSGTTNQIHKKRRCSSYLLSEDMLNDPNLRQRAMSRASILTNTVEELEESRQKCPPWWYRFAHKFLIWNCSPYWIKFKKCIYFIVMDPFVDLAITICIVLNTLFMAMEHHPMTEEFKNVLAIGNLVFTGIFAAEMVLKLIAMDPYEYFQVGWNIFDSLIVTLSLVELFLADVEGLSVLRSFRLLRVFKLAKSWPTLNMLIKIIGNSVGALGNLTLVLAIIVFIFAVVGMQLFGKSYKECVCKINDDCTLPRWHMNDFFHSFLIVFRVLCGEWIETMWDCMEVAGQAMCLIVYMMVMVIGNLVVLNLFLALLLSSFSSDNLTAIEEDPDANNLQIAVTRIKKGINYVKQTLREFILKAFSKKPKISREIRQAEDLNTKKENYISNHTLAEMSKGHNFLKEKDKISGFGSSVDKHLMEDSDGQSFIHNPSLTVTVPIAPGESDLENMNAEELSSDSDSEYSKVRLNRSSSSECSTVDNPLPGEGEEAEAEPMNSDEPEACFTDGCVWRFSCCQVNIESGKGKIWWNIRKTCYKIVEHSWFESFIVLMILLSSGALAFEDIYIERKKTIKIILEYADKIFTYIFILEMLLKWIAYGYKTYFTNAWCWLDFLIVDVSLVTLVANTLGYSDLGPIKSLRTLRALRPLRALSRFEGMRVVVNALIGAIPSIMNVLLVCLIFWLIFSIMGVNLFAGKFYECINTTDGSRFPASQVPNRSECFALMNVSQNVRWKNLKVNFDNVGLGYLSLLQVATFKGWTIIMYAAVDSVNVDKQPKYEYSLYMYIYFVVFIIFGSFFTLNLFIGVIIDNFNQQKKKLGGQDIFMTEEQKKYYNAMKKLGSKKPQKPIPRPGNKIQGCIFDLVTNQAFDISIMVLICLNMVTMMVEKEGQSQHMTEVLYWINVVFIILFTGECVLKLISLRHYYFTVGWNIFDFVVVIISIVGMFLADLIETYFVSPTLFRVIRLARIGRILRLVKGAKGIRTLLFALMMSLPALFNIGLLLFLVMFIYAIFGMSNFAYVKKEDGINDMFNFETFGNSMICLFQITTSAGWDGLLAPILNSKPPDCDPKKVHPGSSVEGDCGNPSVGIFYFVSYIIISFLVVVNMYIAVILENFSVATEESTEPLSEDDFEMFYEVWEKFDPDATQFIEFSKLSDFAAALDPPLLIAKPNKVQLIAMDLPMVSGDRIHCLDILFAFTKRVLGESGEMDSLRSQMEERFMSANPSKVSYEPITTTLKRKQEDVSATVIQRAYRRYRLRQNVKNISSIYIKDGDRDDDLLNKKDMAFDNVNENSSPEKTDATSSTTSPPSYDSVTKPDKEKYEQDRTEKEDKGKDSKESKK

[2] = biological target: hERG (KCNH2) (Homo sapiens, UniProt Q12809); experiment: Percent inhibition against displacement of 35[S] MK-499 binding to hERG channel expressed in HEK293 cells at a concentration of 10 uM; assay type: cell-based; conditions: HEK293 cells that express hERG, probe [35S]MK-499
Chain of hERG (KCNH2) (Q12809 whole entry): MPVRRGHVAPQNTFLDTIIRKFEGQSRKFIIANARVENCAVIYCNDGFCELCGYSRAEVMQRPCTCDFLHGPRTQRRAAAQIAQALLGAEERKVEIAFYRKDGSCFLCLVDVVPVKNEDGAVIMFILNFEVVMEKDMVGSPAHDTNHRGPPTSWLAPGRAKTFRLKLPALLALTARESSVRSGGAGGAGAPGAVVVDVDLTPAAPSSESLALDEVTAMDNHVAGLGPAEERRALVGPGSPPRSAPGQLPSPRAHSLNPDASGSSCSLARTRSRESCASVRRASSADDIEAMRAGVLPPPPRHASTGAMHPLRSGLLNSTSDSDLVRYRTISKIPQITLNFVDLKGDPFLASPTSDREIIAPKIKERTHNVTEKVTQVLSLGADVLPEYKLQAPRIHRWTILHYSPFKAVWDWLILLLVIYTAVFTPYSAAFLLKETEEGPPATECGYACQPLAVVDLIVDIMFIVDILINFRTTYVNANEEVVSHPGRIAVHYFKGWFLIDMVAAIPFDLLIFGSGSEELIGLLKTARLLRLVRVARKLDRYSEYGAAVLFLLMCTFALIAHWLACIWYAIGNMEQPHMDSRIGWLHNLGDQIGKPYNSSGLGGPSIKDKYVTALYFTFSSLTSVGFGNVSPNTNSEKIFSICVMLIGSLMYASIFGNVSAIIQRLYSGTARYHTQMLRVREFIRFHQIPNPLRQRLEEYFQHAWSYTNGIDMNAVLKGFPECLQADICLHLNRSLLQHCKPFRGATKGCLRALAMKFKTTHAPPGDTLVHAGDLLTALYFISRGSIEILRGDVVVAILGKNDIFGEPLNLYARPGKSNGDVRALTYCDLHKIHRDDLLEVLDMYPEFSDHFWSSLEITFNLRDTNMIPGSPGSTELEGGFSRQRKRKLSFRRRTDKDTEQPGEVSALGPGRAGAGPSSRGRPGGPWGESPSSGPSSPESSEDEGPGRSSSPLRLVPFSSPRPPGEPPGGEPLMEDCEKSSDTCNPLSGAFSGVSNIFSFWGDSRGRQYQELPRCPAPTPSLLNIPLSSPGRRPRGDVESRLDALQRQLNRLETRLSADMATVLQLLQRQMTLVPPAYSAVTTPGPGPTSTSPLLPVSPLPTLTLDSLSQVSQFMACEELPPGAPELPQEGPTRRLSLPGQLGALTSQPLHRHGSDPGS

[3] = biological target: T1, Sodium channel protein type 9 subunit alpha; experiment: In vitro inhibitory concentration against Na v1.7 channel electrophysiology in inactivated state expressed in HEK293 cells using Voltage/Ion Probe Reader (VIPR) assay; assay type: cell-based
Target sequence in this assay (Q15858 whole entry): as the sequence (Q15858 whole entry) above

[4] = biological target: T1, Sodium channel protein type 9 subunit alpha; experiment: In vitro inhibitory concentration against Na v1.7 channel electrophysiology in resting state expressed in HEK293 cells using Voltage/Ion Probe Reader (VIPR) assay; assay type: functional, cell-based
Target sequence in this assay (Q15858 whole entry, looked up): as the sequence (Q15858 whole entry) above

[5] = test system: Rattus norvegicus; experiment: Percent formalin paw response in rat at (10-40 min, 3 mg/kg, iv); assay type: functional
[6] = Bioavailability in rat; assay type: ADME, organism-based; conditions: in vivo
[7] = Half-life in rat was determined; assay type: ADME; conditions: in vivo
[8] = Clearance rate in rat was determined; assay type: ADME, organism-based; conditions: plasma, read-out: Clp
[9] = biological target: T2, Voltage-gated inwardly rectifying potassium channel KCNH2 (Homo sapiens, UniProt Q12809)
T2 sequence (Q12809 whole entry): as the sequence (Q12809 whole entry) above
Description: In vitro inhibitory concentration against displacement of 35[S] MK-499 binding to hERG channel expressed in HEK293 cells

[10] = biological target: T2, Voltage-gated inwardly rectifying potassium channel KCNH2; experiment: In vivo inhibitory concentration against displacement of 35[S] MK-499 binding to hERG channel expressed in HEK293 cells; assay type: organism-based
[11] = biological target: T1, Sodium channel protein type 9 subunit alpha; experiment: In vivo inhibitory concentration against Na v1.7 channel expressed in HEK293 cells using Voltage/Ion Probe Reader (VIPR) assay; assay type: organism-based
Target sequence in this assay (Q15858 whole entry): as the sequence (Q15858 whole entry) above

[12] = biological target: T1, Sodium channel protein type 9 subunit alpha; conditions: HEK293
Target sequence in this assay (Q15858 whole entry, looked up): as the sequence (Q15858 whole entry) above

SMILES	pIC50 [1]	inhibition at 10 µM [2]	also measured
CCOc1cccc(C(=O)N2CCCC2)c1OCc1csc(-c2ccc(Cl)cc2)n1	5.18	–	–
COc1cccc(C(=O)N2CCCC2)c1OCc1ccc(-c2ccccc2)cc1	5.40	–	–
COc1cccc(C(=O)N2CCCCC2)c1OCc1csc(-c2ccc(Cl)cc2)n1	5.43	63%	–
O=C(c1cccc(O)c1OCc1csc(-c2ccc(Cl)cc2)n1)N1CCCC1	< 4.52	–	–
COc1cccc(C(=O)N2CCCC2)c1OCCc1ccccc1	< 4.52	–	–
COc1cccc(C(=O)N2CCCC2)c1OCc1ccc(C(C)(C)C)cc1	4.05	–	–
COc1cccc(CN2CCCCCCC2)c1OCc1csc(-c2ccc(Cl)cc2)n1	5.42	–	–
COc1cccc(C(=O)N2CCCC2)c1OCCCc1ccccc1	4.68	–	–
O=C(c1ccccc1OCc1csc(-c2ccc(Cl)cc2)n1)N1CCCCCC1	4.40	90%	–
COc1cccc(C(=O)N2CCCCCCC2)c1OCc1csc(-c2ccc(Cl)cc2)n1	4.71	88%	–
O=C(c1ccccc1OCc1csc(-c2ccc(Cl)cc2)n1)N1CCCCC1	5.13	89%	–
O=C(c1ccccc1OCc1csc(-c2ccc(Cl)cc2)n1)N1CCCCCCC1	4.54	90%	–
COc1cccc(C(=O)N2CCCC2)c1OC(C)c1ccccc1 (stereo not given)	< 4.52	–	–
CC(C)(C)Oc1cccc(C(=O)N2CCCC2)c1OCc1csc(-c2ccc(Cl)cc2)n1	4.66	–	–
COc1cccc(CN2CCCCCCC2)c1OCc1csc(-c2ccccc2)n1	5.40	–	pIC50 [9]: 6.74
CC(C)Oc1cccc(C(=O)N2CCCC2)c1OCc1csc(-c2ccc(Cl)cc2)n1	5.12	–	–
COc1cccc(C(=O)N2CCCCCC2)c1OCc1csc(-c2ccc(Cl)cc2)n1	5.19	85%	–

These reach a higher pIC50 [1]. Values come first.

pIC50 [1]	SMILES	inhibition at 10 µM [2]	also measured
6.14	O=C(c1cccc(Cl)c1OCc1csc(-c2ccc(Cl)cc2)n1)N1CCCC1	–	–
6.07	COc1cccc(C(=O)N2CCCC2)c1OCc1nc(-c2ccc(Cl)cc2)no1	–	–
5.66	COc1cccc(C(=O)N2CCCC2)c1OC(C)c1csc(-c2ccc(Cl)cc2)n1 (stereo not given)	–	–
5.89	COc1cccc(C(=O)N2CCCC2)c1OCc1csc(-c2ccc(Cl)cc2)n1	50%	pKi [3]: 6.85; pIC50 ([1]; hek293): 5.89; KR [4]: 10 µM; Activity [5]: 68%; bioavailability [6]: 9.4%; half-life [7]: 28.8 min; clearance [8]: 101 mL/min/kg; pIC50 [9]: 5.11
6.26	COc1cccc(C(=O)N2CCCC2)c1OCc1ccc(-c2cccs2)s1	–	–
5.54	Clc1ccc(-c2nc(COc3ccccc3CN3CCCCCCC3)cs2)cc1	–	–
6.00	O=C(c1ccccc1OCc1csc(-c2ccc(Cl)cc2)n1)N1CCCC1	63%	pIC50 [10]: 5.01; pIC50 [11]: 6.00; pKi [3]: 6.80; Activity [5]: 65%; bioavailability [6]: 17%; half-life [7]: 26.4 min; clearance [8]: 627 mL/min/kg; KR [12]: 6.7 µM
6.26	Cc1cccc(C(=O)N2CCCC2)c1OCc1csc(-c2ccc(Cl)cc2)n1	–	–
